Measured values as given in US12624057B2, “Bisphosphonate quinolone conjugates and uses thereof” (BIOVINC, LLC, priority 2016, dated 2026).
“Also recorded” adds a separate entry of the source.

Tests used:
Assay type in all cases: cell-based, Staphylococcus aureus
[1] = system: planktonic S. aureus clinical osteomyelitis strains (MSSA and MRSA); assay: MIC by microdilution against planktonic clinical S. aureus strains; conditions: for antimicrobial activity / MIC against planktonic S. aureus (in words): microdilution, 24 h
Protocol: (§1) Subsequently, the plate was incubated for 24 h/37° C. in a shaker to obtain optimal conditions for microbial growth and to prevent bacteria from forming biofilms. After incubation, the absorbance was measured once again. The following control samples were established: negative control sample one: sterile medium without microbes; negative control sample two: sterile medium without microbes implemented with DMSO (dimethyl sulfoxide, Sigma-Aldritch) to final concentration of 1% (v/v); positive control sample one: medium+microbes with no compound tested; positive control sample two: medium+microbes with no compound tested but implemented with DMSO to final concentration of 1% (v/v). […] To assess relative number of cells, the following calculations were performed. […] Next, the relative number of cells subjected to incubation with tested compounds were counted as follows: […].
as §1, with “Evaluation of the MIC of tested compounds against planktonic forms of clinical staphylococcal strains analyzed: To assess the impact of parent antibiotic and conjugates on microbial growth, 100 μl of microbial solutions of density 1×10^5 CFU/ml were placed into wells of 96-well test plates together with appropriate concentrations of tested compounds. […] Subsequently,” for “Subsequently,”, “plates were” for “the plate was”, “hrs/37°” for “h/37°”, “Sigma-Aldrich)” for “Sigma-Aldritch)”
The occurrence of opacification or lack of opacification of media was proof of pathogen growth or lack of growth, respectively. Additionally, bacterial solutions were cultured on the appropriate stable medium. Growth or lack of growth of bacterial colonies together with above-mentioned results from liquid cultures served as confirmation of results obtained spectrophotometrically.

[2] = system: biofilms of S. aureus strain ATCC-6538; assay: Preformed biofilms on HA discs, S. aureus; conditions: HA as substrate
Protocol: Antimicrobial susceptibility testing of BP-ciprofloxacin against preformed biofilms of S. aureus strain ATCC-6538 and P. aeruginosa strain ATCC-15442: Strains cultured on appropriate agar plates (Columbia agar plate for S. aureus; MacConkey agar plate for P. aeruginosa) were transferred to liquid microbiological media and incubated for 24 h/37° C. under aerobic conditions. After incubation, strains were diluted to the density of 1 MF. The microbial dilutions were introduced to wells of 24-well plates containing HA discs as a substrate, or simply to polystyrene wells where the bottom surface of the wells served as the substrate for biofilm development. Strains were incubated at 37° C. for 4 hrs. Next, the microbe-containing solutions were removed from the wells. The surfaces, HA discs and polystyrene plates, were gently rinsed to leave adhered cells and to remove planktonic or loosely-bound microbes. Surfaces prepared in this manner were immersed in fresh TSB medium containing 0.24-125 mg/L of BP-ciprofloxacin conjugate. After 24 hrs of incubation at 37° C. the surfaces were rinsed using physiological saline solution and transferred to 1 mL of 0.5% saponin (Sigma-Aldrich, St Louis, MO). The surfaces were vortex-mixed vigorously for 1 minute to detach cells. Subsequently, all microbial suspensions were diluted 10 to 10^9 times. Each dilution ([…]) was cultured on the appropriate stable medium (MacConkey, Columbia for P. aeruginosa and S. aureus, respectively) and incubated at 37-C for 24 hours. After this time, the microbial colonies were counted and the number of cells forming biofilm was assessed. Results were presented as the mean number of CFU per square millimeter surface±standard error of the mean. To estimate the exact surface area of HA discs, x-ray tomographic analysis was applied. For estimation of the area of test plate bottoms, the equation for circle area: πr2 was applied.
Antimicrobial susceptibility testing of 6 against preformed biofilms of S. aureus strain ATCC-6538 and P. aeruginosa strain ATCC-15442: Strains cultured on appropriate agar plates (Columbia agar plate for S. aureus; MacConkey agar plate for P. aeruginosa) were transferred to liquid microbiological media and incubated for 24 hrs/37° C. under aerobic conditions. After incubation, strains were diluted to the density of 1 MF. The microbial dilutions were introduced to wells of 24-well plates containing HA discs as a substrate, or simply to polystyrene wells where the bottom surface of the wells served as the substrate for biofilm development. Strains were incubated at 37° C. for 4 hrs. Next, the microbe-containing solutions were removed from the wells. The surfaces, HA discs and polystyrene plates, were gently rinsed to leave adhered cells and to remove planktonic or loosely-bound microbes. […] After 24 hrs of incubation at 37° C. the surfaces were rinsed using physiological saline solution and transferred to 1 mL of 0.5% saponin (Sigma-Aldrich, St Louis, MO). The surfaces were vortex-mixed vigorously for 1 minute to detach cells. Subsequently, all microbial suspensions were diluted 10-1 to 10-9 times. Each dilution ([…]) was cultured on the appropriate stable medium (MacConkey, Columbia for P. aeruginosa and S. aureus, respectively) and incubated at 37° C. for 24 hrs. After this time, the microbial colonies were counted and the number of cells forming biofilm was assessed. Results were presented as the mean number of CFU per square millimeter surface±standard error of the mean. To calculate the surface area of HA discs, x-ray tomographic analysis was applied. For estimation of the area of test plate bottoms, the equation for circle area: πr^2 was applied.

S. aureus 6538 = assay: Preventative assay, HA spherules pretreated then inoculated with S. aureus
Protocol: Preventative ability of BP-ciprofloxacin conjugate to inhibit S. aureus 6538 adherence to HA spherules: Various BP-ciprofloxacin concentrations were introduced to HA powder (spherules) suspended in TSB microbiological medium. Solutions containing conjugate and HA spherules were introduced to wells of 24-well plates. Final concentrations of powder were 10 mg/1 mL, while final concentrations of the conjugate were 0.12-250 mg/L. Suspensions were left for 24 h/37° C./shaking. After 24 h, suspensions were removed from the wells and impulse-centrifuged to precipitate HA powder. Next, supernatant was very gently discarded and a fresh 1 mL of S. aureus of density 10^5 cfu/mL was introduced to the HA spherules. Subsequently, this solution was shaken, absorbance was measured using 580 nm wavelength and left for 24 h/37° C./shaking. After incubation absorbance was measured again and values from 0 hr and 24 hrs were compared to assess reduction of bacterial growth with regard to control sample one (bacterial suspension but no spherules) and control sample two (bacterial suspension+spherules but with no conjugate added). Additionally, solutions were impulse-centrifuged, supernatant was gently discarded, while bacteria-containing HA spherules were culture plated as before and quantitatively assessed. […]

[3] = system: S. aureus ATCC6538 biofilms; assay: Survival of S. aureus biofilm on pretreated, rinsed HA discs; conditions: pretreated HA discs
Protocol: HA discs incubated in DMSO or phosphate buffer served as control samples. Next, discs were rinsed 3 times with sterile water. After rinsing, 2 mL of 0.5 MF of. S. aureus ATCC6538 were introduced to wells containing HA discs as a substrate for biofilm development and biofilms were formed as before.

For `O=C(O)c1cn(C2CC2)c2cc(N3CCN(C(=O)c4ccc(CC(P(=O)(O)O)P(=O)(O)O)cc4)CC3)c(F)cc2c1=O` [Compound 11, 1-cyclopropyl-7-(4-(4-(2,2-diphosphonoethyl)benzoyl)piperazin-1-yl)-6-fluoro-4-oxo-1,4-dihydroquinoline-3-carboxylic acid], the “concentration of 11 relative to 6 to achieve the same antibacterial effect” value ([1]; MIC assay, S. aureus strains) was 2-64 ×, the “antimicrobial activity / MIC against planktonic S. aureus (in words)” value [1] was “weaker activity” and the “antimicrobial activity / MIC against planktonic S. aureus (in words)” value ([1]; listed as BAC) was “very little effect on bacterial growth under any circumstances; also recorded: has lost most of the activity”. The “bactericidal activity / reduction of CFUs against established biofilm (in words)” value [2] was “insignificant; also recorded: No significant activity is observed at any concentration”, the “preventative antimicrobial activity on pretreated HA (in words)” value (S. aureus 6538) was “insignificant; also recorded: not detectable; also recorded: no antimicrobial activity is observed” and the “ability to prevent biofilm formation on pretreated HA (in words)” value [3] was “no significant antimicrobial activity”. For the same molecule, the “ability to prevent biofilm formation on pretreated HA (in words)” value ([3]; listed as BAC) was “did not inhibit the growth of biofilms on bone substitute even at very high concentrations”.
